Reference: publication PMC5097156, “Potent and selective chemical probe of hypoxic signalling downstream of HIF-α hydroxylation via VHL inhibition” (Nature Communications, 2016)

Legend:
Experiment in all cases: biochemical
Design in all cases: Dundee MRC-PPU Express kinase screen, remaining kinase activity
Conditions in all cases: read-out: Mean % of remaining kinase activity (±sd)
Src = Src (Homo sapiens, UniProt P12931)
CAMK1 = CAMK1 (Homo sapiens, UniProt Q14012)
ROCK 2 = molecular target: T1, ROCK 2 (Homo sapiens, UniProt O75116)
T1 construct: gene ROCK2

CK2 = molecular target: T2, CK2 (Homo sapiens, UniProt P68400)
T2 construct: gene CSNK2A1

HER4 = molecular target: T3, HER4 (Homo sapiens, UniProt Q15303)
T3 construct: gene ERBB4

EPH-A2 = molecular target: T4, EPH-A2 (Homo sapiens, UniProt P29317)
T4 construct: gene EPHA2
T4 sequence (P29317 whole entry): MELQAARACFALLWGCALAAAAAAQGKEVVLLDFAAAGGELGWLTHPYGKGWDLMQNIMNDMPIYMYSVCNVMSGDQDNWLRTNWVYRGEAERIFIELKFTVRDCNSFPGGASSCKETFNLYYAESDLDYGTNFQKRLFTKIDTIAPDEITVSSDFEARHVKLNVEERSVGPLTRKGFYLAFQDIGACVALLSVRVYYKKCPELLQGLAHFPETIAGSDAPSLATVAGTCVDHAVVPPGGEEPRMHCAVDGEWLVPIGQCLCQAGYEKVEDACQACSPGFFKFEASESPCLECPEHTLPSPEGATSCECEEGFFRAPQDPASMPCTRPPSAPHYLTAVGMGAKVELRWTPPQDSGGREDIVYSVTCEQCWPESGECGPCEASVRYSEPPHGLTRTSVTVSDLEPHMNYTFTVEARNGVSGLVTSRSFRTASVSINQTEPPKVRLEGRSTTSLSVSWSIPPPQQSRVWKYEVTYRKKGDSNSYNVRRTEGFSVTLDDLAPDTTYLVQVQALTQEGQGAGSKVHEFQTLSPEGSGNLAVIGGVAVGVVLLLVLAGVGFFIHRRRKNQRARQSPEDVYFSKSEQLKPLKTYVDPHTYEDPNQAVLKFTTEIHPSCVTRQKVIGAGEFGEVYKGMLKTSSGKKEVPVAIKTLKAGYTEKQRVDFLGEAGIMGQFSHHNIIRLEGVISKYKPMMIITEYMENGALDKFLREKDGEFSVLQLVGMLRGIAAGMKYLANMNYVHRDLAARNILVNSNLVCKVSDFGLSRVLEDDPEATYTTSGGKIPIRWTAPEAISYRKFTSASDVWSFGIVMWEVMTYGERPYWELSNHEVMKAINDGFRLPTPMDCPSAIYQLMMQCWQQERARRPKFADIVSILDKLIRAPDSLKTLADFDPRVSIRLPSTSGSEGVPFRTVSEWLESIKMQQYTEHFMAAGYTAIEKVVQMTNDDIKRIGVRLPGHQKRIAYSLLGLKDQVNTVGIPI

MST2 = molecular target: T5, MST2 (Homo sapiens, UniProt Q13188)
T5 construct: gene STK3

Aurora B = molecular target: T6, Aurora B (Homo sapiens, UniProt Q96GD4)
T6 construct: gene AURKB

RIPK2 = RIPK2 (Homo sapiens, UniProt O43353)
AMPK (hum) = molecular target: T7, AMPK (hum) (Homo sapiens, UniProt Q13131)
T7 construct: gene PRKAA1

PLK1 = PLK1 (Homo sapiens, UniProt P53350)
LKB1 = molecular target: T8, LKB1 (Homo sapiens, UniProt Q15831)
T8 construct: gene STK11

MARK3 = MARK3 (Homo sapiens, UniProt P27448)
PKBa = molecular target: T9, PKBa (Homo sapiens, UniProt P31749)
T9 construct: gene AKT1

HIPK2 = HIPK2 (Homo sapiens, UniProt Q9H2X6)
Sequence of HIPK2 (Q9H2X6 whole entry): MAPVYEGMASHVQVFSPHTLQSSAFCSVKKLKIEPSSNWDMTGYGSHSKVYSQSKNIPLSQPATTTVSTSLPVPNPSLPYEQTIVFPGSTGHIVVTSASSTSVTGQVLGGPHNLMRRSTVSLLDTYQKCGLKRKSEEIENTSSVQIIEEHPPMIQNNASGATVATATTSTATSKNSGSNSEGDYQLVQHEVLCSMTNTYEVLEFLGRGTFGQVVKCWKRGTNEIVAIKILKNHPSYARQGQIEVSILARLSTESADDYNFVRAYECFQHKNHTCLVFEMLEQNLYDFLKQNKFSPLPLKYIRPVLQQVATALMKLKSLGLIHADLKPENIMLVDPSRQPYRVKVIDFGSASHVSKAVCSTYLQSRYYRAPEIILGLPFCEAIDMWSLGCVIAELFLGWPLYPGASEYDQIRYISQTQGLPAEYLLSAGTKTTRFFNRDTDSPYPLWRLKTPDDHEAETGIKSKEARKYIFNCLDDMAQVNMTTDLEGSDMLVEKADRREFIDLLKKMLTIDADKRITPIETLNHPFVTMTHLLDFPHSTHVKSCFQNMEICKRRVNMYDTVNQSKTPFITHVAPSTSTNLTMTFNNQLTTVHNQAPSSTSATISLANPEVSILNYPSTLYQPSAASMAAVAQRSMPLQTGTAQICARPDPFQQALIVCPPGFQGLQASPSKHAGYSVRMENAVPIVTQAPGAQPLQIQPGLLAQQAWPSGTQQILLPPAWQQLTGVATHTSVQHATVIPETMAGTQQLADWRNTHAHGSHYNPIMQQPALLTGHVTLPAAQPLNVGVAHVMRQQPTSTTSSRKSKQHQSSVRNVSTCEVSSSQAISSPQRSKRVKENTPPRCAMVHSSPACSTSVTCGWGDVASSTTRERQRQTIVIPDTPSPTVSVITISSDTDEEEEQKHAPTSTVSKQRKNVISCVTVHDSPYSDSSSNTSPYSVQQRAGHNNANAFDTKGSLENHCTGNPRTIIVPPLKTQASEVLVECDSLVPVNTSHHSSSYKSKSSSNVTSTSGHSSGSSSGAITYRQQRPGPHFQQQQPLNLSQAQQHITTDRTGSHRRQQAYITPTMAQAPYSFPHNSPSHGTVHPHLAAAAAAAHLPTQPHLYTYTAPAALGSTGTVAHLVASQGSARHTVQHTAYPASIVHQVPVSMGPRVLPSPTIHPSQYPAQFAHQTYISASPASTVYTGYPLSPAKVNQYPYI

p38a MAPK = molecular target: T10, p38a MAPK (Homo sapiens, UniProt Q16539)
T10 construct: gene MAPK14

Lck = Lck (Homo sapiens, UniProt P06239)
PIM1 = PIM1 (Homo sapiens, UniProt P11309)
DYRK1A = DYRK1A (Homo sapiens, UniProt Q13627)
PKCa = molecular target: T11, PKCa (Homo sapiens, UniProt P17252)
T11 construct: gene PRKCA

TrkA = molecular target: T12, TrkA (Homo sapiens, UniProt P04629)
T12 construct: gene NTRK1

PKA = molecular target: T13, PKA (Homo sapiens, UniProt P17612)
T13 construct: gene PRKACA

S6K1 = molecular target: T14, S6K1 (Homo sapiens, UniProt P23443)
T14 construct: gene RPS6KB1

IRAK4 = IRAK4 (Homo sapiens, UniProt Q9NWZ3)
JAK3 = JAK3 (Homo sapiens, UniProt P52333)
Sequence of JAK3 (P52333 whole entry): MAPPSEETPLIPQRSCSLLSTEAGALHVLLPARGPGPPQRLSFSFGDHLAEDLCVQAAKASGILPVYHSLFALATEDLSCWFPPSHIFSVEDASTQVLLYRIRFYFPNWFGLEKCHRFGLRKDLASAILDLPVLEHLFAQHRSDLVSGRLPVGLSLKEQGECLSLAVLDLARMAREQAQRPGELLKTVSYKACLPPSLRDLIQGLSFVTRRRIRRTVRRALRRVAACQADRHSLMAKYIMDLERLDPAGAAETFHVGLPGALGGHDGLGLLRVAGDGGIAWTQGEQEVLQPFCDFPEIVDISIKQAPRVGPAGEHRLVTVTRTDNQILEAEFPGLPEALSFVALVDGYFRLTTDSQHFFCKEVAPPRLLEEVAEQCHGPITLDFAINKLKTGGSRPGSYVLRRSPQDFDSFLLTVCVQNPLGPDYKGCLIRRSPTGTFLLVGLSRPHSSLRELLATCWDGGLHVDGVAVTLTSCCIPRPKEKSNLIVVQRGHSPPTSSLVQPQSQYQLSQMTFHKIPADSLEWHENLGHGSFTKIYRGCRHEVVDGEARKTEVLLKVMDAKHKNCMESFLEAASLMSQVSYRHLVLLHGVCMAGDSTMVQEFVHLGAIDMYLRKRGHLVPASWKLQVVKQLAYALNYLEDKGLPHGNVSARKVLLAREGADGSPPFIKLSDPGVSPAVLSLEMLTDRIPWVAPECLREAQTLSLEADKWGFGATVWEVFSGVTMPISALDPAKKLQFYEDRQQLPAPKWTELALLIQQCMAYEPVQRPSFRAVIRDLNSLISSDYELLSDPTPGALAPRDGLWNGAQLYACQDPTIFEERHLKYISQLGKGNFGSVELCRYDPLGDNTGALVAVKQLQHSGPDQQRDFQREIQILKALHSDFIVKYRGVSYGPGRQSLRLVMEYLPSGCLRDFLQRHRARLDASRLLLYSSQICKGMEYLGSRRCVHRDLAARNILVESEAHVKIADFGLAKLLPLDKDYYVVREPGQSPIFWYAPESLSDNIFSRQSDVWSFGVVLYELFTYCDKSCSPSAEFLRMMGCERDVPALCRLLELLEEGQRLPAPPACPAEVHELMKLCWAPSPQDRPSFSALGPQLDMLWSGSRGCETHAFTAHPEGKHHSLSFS

CHK2 = molecular target: T15, CHK2 (Homo sapiens, UniProt O96017)
T15 construct: gene CHEK2

EF2K = molecular target: T16, EF2K (Homo sapiens, UniProt O00418)
T16 construct: gene EEF2K
T16 sequence (O00418 whole entry): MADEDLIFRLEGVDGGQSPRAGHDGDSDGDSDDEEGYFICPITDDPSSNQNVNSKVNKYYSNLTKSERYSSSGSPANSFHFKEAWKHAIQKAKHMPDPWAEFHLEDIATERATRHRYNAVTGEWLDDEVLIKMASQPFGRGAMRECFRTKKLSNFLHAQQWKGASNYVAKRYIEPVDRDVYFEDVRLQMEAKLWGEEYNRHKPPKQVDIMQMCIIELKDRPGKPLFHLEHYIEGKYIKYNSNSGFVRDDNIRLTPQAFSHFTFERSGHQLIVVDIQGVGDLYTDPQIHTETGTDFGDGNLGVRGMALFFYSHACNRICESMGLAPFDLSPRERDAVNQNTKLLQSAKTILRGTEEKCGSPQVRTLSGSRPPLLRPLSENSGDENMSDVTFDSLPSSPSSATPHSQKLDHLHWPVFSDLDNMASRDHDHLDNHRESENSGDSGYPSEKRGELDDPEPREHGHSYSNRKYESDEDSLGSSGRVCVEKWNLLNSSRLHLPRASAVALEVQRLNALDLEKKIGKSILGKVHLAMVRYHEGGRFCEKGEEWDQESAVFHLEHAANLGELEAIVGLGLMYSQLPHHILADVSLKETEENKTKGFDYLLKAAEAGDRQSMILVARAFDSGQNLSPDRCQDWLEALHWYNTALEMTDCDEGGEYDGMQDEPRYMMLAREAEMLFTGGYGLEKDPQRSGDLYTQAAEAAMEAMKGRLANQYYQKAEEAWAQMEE

TTK = TTK (Homo sapiens, UniProt P33981)
SGK1 = SGK1 (Homo sapiens, UniProt O00141)
Sequence of SGK1 (O00141 whole entry): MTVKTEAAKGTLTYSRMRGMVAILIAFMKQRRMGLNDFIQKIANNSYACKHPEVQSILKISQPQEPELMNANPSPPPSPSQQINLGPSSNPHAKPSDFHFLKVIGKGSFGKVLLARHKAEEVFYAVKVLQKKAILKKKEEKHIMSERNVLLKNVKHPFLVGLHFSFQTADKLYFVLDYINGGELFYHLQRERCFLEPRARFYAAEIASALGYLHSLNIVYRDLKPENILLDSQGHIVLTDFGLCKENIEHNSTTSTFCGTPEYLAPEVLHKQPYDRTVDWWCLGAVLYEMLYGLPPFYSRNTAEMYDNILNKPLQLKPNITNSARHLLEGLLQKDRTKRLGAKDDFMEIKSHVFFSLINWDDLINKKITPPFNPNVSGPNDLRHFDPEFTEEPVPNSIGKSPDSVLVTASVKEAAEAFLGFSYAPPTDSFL

Sequence of CAMK1 (Q14012 whole entry): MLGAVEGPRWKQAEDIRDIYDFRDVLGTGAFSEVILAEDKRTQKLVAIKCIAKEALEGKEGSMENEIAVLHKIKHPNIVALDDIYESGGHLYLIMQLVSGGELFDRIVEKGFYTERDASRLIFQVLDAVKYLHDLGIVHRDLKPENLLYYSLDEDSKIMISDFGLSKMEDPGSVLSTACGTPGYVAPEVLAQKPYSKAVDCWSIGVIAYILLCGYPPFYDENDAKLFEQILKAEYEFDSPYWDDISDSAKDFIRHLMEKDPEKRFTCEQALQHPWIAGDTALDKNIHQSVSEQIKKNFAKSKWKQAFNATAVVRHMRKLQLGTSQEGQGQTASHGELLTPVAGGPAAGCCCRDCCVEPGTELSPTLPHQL

`Cc1ncsc1-c1ccc(CNC(=O)[C@@H]2C[C@@H](O)CN2C(=O)[C@@H](NC(=O)C2(C#N)CC2)C(C)(C)C)cc1` [VH298] showed a remaining activity at 50 µM (Src) of 112%, a remaining activity at 50 µM (CAMK1) of 81% and a remaining activity at 50 µM (ROCK 2) of 75%. For the same molecule, the remaining activity at 50 µM (CK2) was 116%, the remaining activity at 50 µM (HER4) was 96% and the remaining activity at 50 µM (EPH-A2) was 107%. For the same molecule, the remaining activity at 50 µM (MST2) was 98%, the remaining activity at 50 µM (Aurora B) was 78% and the remaining activity at 50 µM (RIPK2) was 112%. For the same molecule, the remaining activity at 50 µM (AMPK (hum)) was 101%, the remaining activity at 50 µM (PLK1) was 100% and the remaining activity at 50 µM (LKB1) was 105%. The remaining activity at 50 µM (MARK3) was 94%, the remaining activity at 50 µM (PKBa) was 54% and the remaining activity at 50 µM (HIPK2) was 100%. It also gave a remaining activity at 50 µM (p38a MAPK) of 108%, a remaining activity at 50 µM (Lck) of 104% and a remaining activity at 50 µM (PIM1) of 92%. For the same molecule, the remaining activity at 50 µM (DYRK1A) was 76%, the remaining activity at 50 µM (PKCa) was 99% and the remaining activity at 50 µM (TrkA) was 100%. For the same molecule, the remaining activity at 50 µM (PKA) was 68%, the remaining activity at 50 µM (S6K1) was 87% and the remaining activity at 50 µM (IRAK4) was 112%. It also gave a remaining activity at 50 µM (JAK3) of 99%, a remaining activity at 50 µM (CHK2) of 93% and a remaining activity at 50 µM (EF2K) of 116%. For the same molecule, the remaining activity at 50 µM (TTK) was 97% and the remaining activity at 50 µM (SGK1) was 83%.
